Data reported in patent US6524330B1, “Method of ocular treatment” (priority 2000, dated 2003).
“Also recorded” adds a separate entry of the source.

How the values were obtained:
choriocapillaris [1] = assay: Photodynamic therapy with liposomal hypocrellin A in rabbit eyes, yellow laser (568 nm), fundus observation and fluorescein angiography; format: in vivo, Rabbits (Dutch belted pigmented); details: for Fluorescein Angiogram 2 hours post PDT / Fluorescein Angiogram 24 hours post PDT: 568 nm, 500 μg/kg i.v. in liposomes
Method: (§1) Rabbits (twenty-five Dutch belted pigmented, 2-3 kg body weight), were administered hypocrellin A (Molecular Probes, Eugene, Oreg.) by systemic injection into the ear vein. Animals were anesthetized by intramuscular injection of ketamine hydrochloride (50 mg/kg) and xylazine hydrochloride (5 mg/kg). Pupils were dilated with 2.5% phenylephrine and 0.5% tropicamide.
Hypocrellin A was incorporated into liposomes composed of phosphatidylcholine (PC), phosphatidylglycerol (PG), cholesterol, or dipalmitoyl phosphatidylcholine (DPPC), dipalmitoyl phosphatidylglycerol (DPPG) (Avanti Polar Lipids, Pelham, Ala.), with or without cholesterol, using methods known to one of skill in this art. In general, large unilamellar vesicles (LUV) were formed using the reverse phase evaporation method of Szoka and Papahadjopoulos (Proc. Natl. Acad. Sci. USA 1978; 75:4194-4198). Lipids (100 mg PC, 25 mg PG, and optionally 15 mg cholesterol) and 1 mg hypocrellin A were dissolved in chloroform. The solution was placed in a round flask under rotary evaporation (Buschi Laboratoriums-teenik AG, Flawil, Schewiz) to make a thin film. The dried material was dissolved in 6 ml chloroform and 12 ml ether.
The aqueous phase consisted of 4 ml HEPES buffered saline ([…] NaCI, 2 mM KCI, 10 mM HEPES buffer, pH 7.4, 300 mOsm). This was added to the chloroform/ether solution, the flask was filled with nitrogen gas and subjected to ultrasound at 40° C. for two minutes to form a homogeneous emulsion, which was transferred to a rotary evaporator. At pressures below about 400 mm Hg, the emulsion began to bubble extensively as the organic phase was drawn off. […] The foaming emulsion was vented whenever it neared the top of the flask. Progressively higher vacuum was used to maintain foaming. As the process continued, the foaming decreased. At a pressure of about 100 mm Hg, foaming ceased and the procedure was completed. The process yielded large, negatively charged, unilamellar liposomes with HEPES buffer encapsulated into the aqueous phase and hypocrellin A incorporated into the bilayers of the liposomes. Before injection, the LUV were filtered through 0.8 μm pores.
The hypocrellin preparation was administered as an intravenous bolus into the marginal ear vein. The dose of hypocrellin administered was 500 μg/kg in a volume of about 2 ml. However, doses in the range of about […] may also be administered. Control animals received vehicle (liposomes without hypocrellin A in a saline solution) only.
(§2) After administration of compound, for example, 10-15 minutes after hypocrellin A administration, PDT was initiated upon application of laser irradiation with a dye laser (Coherent, Palo Alto, Calif.). Prior to light application, a lens with a focal length of 25 cm was placed in front of the laser beam to prevent interference with the slit lamp light path and to enlarge the spot size produced by the 500 μm setting of the laser to 2 mm on the retina. A spot size of 2 mm was used throughout. A plano fundus contact lens was placed on the cornea, with methylcellulose gel as a coupler, to null the refraction of the cornea. Animals were positioned in a stereotactic support attached to the slit lamp to maintain precise alignment.
The wavelengths were tested: yellow (568 nm) and red (647 nm). Laser powers were in the range of about 10 mW to about 60 mW. Duration of irradiation was for a minimum of 10 seconds to a maximum of 60 seconds. The photodynamic effect is not only related to the irradiance, but power and duration as well. Fluence (irradiance) is the product of power and duration divided by the spot size, but with a constant spot size, irradiance is a function of power and duration only. Fluence was in the range of 3.2 to 95.5 J/cm^2. […] In one embodiment, the lowest possible power and duration that induce the minimal fluorescein angiographic response is used.
The irradiations were done in the avascular retina, below the optic disc. […]

choriocapillaris [2] = assay: Photodynamic therapy with hypocrellin A in rabbit eyes, red laser (647 nm), funduscopy and angiography; format: in vivo, Rabbits (Dutch belted pigmented); details: 647 nm (red laser); dose of 500 μg/kg systemically; any of the power levels or durations tested
Method: as §1
The hypocrellin preparation was administered as an intravenous bolus into the marginal ear vein. […] However, doses in the range of about […] may also be administered. Control animals received vehicle (liposomes without hypocrellin A in a saline solution) only.
as §2, with “alignment. […]” for “alignment.”

choriocapillaris [3] = system: choriocapillaris
Method: Immediately after the second fluorescein examination, eyes were enucleated and fixed in 2% paraformaldehyde and 3% glutaraldehyde for 24 h. The areas of PDT treatment were surgically excised and specimens were dehydrated in ethanol, embedded in resin, subjected to serial sectioning and staining with 1% toluidine blue for light microscopy.

[4] = cited from earlier work
[5] = power 10 mW, duration 10, 20, 30, 40, 50, 60 sec, irradiance 3.2-19.1 J/cm^2, 2 mm spot
[6] = power 20 mW, duration 10, 20, 30, 40, 50 sec, irradiance 6.4-31.8 J/cm^2
[7] = power 20 mW, duration 60 sec, irradiance 38.2 J/cm^2
[8] = power 30 mW, duration 10, 20, 30 sec, irradiance 9.6-28.6 J/cm^2
[9] = power 30 mW, duration 40, 50, 60 sec, irradiance 38.2-57.3 J/cm^2
[10] = power 40 mW, duration 10 sec, irradiance 12.7 J/cm^2
[11] = power 40 mW, duration 20, 30, 40, 50, 60 sec, irradiance 25.4-76.4 J/cm^2
[12] = power 50 mW, duration 10, 20, 30, 40, 50, 60 sec, irradiance 15.9-95.5 J/cm^2
[13] = power 60 mW, duration 10 sec, irradiance 19.1 J/cm^2
[14] = power 60 mW, duration 20 sec, irradiance 38.2 J/cm^2
[15] = power 60 mW, duration 30 sec, irradiance 57.3 J/cm^2

hypocrellin A
retinal changes in the treated area during or immediately after laser irradiation (choriocapillaris [1]; 568 nm (yellow laser), treated rabbits): no retinal changes
Fluorescein Angiogram 2 hours post PDT (choriocapillaris [1]; [5]): no effect; also recorded: No response
Fluorescein Angiogram 24 hours post PDT (choriocapillaris [1]; [5]): no effect; also recorded: No response
Fluorescein Angiogram 2 hours post PDT (choriocapillaris [1]; [6]): no effect; also recorded: No response
Fluorescein Angiogram 24 hours post PDT (choriocapillaris [1]; [6]): no effect; also recorded: No response
Fluorescein Angiogram 2 hours post PDT (choriocapillaris [1]; [7]): No response
Fluorescein Angiogram 24 hours post PDT (choriocapillaris [1]; [7]): minimal response; also recorded: Minimal H
Fluorescein Angiogram 2 hours post PDT (choriocapillaris [1]; [8]): No response
Fluorescein Angiogram 24 hours post PDT (choriocapillaris [1]; [8]): No response
Fluorescein Angiogram 2 hours post PDT (choriocapillaris [1]; [9]): No response
Fluorescein Angiogram 24 hours post PDT (choriocapillaris [1]; [9]): fluorescence effect was seen and H
Fluorescein Angiogram 2 hours post PDT (choriocapillaris [1]; [10]): No response
Fluorescein Angiogram 24 hours post PDT (choriocapillaris [1]; [10]): No response
Fluorescein Angiogram 2 hours post PDT (choriocapillaris [1]; [11]): no effect; also recorded: No response
Fluorescein Angiogram 24 hours post PDT (choriocapillaris [1]; [11]): fluorescence effect and H
Fluorescein Angiogram 2 hours post PDT (choriocapillaris [1]; [12]): No response
Fluorescein Angiogram 24 hours post PDT (choriocapillaris [1]; [12]): fluorescence effect was observed and H
Fluorescein Angiogram 2 hours post PDT (choriocapillaris [1]; [13]): No response
Fluorescein Angiogram 24 hours post PDT (choriocapillaris [1]; [13]): response visible on the angiogram and fluorescence effect and H
Fluorescein Angiogram 2 hours post PDT (choriocapillaris [1]; [14]): fluorescence effect was seen and H
Fluorescein Angiogram 24 hours post PDT (choriocapillaris [1]; [14]): fluorescence effect was seen and H
Fluorescein Angiogram 2 hours post PDT (choriocapillaris [1]; [15]): fluorescence effect was seen and H
Fluorescein Angiogram 24 hours post PDT (choriocapillaris [1]; [15]): fluorescence effect was seen and H
funduscopic or angiographic changes (choriocapillaris [2]): no demonstrable funduscopic or angiographic changes
histologic finding by light microscopy 24 hours after laser irradiation (choriocapillaris [3]; all eyes that developed angiographic changes): occlusion of the choriocapillaris
damage to inner or outer retinal layers (choriocapillaris [3]; light microscopy 24 hours after laser irradiation): No damage to inner or outer retinal layers
toxicity in the absence of light [4]: non-toxic
